According to US20250084080A1, “CRYSTALLINE AND SALT FORMS OF AN NLRP3 INHIBITOR” (BioAge Labs, Inc., priority 2023, published 2025):
Converted amounts (≈) assume the structure as drawn.

How the values were obtained:
Assay type in all cases: physicochemical
[1] = Bulk stability (solid state, 1 week; HPLC, XRPD, IC, color); conditions: 25° C./92.5% RH open, 40° C./75% RH open, 60° C. tight container
Procedure: Bulk stability of free form Pattern B was evaluated at 25° C./92.5% RH in an open container, at 40° C./75% RH in an open container and at 60° C. in a tight container over 1 week.

[2] = Solubility at 37° C. in buffers and biorelevant media, XRPD of residual solid; conditions: for XRPD of residual solid: 24 h; for solubility: thermodynamic from solid
Procedure: Solubility of BAL-0748 free form Pattern B was investigated in pH 1.2 HCl buffer, pH 4.5 50 mM acetate buffer, pH 6.8 50 mM phosphate buffer, water, pH 1.6 FaSSGF, pH 6.5 FaSSIF-v1, pH 5.0 FeSSIF-v1 and 2% HPMC+1% Pluronic F68 in pH 4.5 50 mM acetate buffer at 37° C. for 2 h and 24 h. Residual solids after the solubility test were analyzed by XRPD.
Solubility of the free form Pattern A, the HCl salt Pattern A, the phosphate salt Pattern A, and the sodium salt Pattern A was measured in pH 1.2 HCl buffer, pH 4.5 acetate buffer (50 mM), pH 6.8 phosphate buffer (50 mM), water, pH 1.6 FaSSGF, pH 6.5 FaSSIF-v1, pH 5.0 FeSSIF-v1, and 2% HPMC+1% Pluronic F68 in pH 4.5 acetate buffer (50 mM) at 37° C. for 2 hours and 24 hours.
10.4 mg of the free form Pattern A, 10.0 mg of the free form Pattern B, 10.8 mg of the HCl salt Pattern A, 12.2 mg of the phosphate salt Pattern A, or 10.5 mg of the sodium salt Pattern A was weighed into a 20 mL glass vial, respectively. 5 mL of solubility medium was added. The salt amount used was equivalent to 10 mg anhydrous free form. Obtained suspensions were stirred at 37° C. at 400 rpm and sampled at 2 hours and at 24 hours. The samples were centrifuged at 37° C. at 14,000 rpm for 5 min. Supernatants were analyzed by HPLC and PH meter for solubility and pH value, respectively. Residual solids (wet cakes) from the 24 hours samples were also characterized by XRPD to determine physical form.

[3] = Hygroscopicity by dynamic vapor sorption (DVS) at 25° C.; conditions: DVS at 25° C.
Procedure: Dynamic vapor sorption (DVS) was performed on an Intrinsic, Advantage or Adventure with an oven temperature of 25° C. using water as a solvent. The sample mass was about 5-10 mg using the following method: • Cycle: 40-0-95-0-40% RH • Stage Step: 10% • Equilibrium: 0.002 dm/dt (%/min) • Minimum dm/dt stability duration: 60 min • Maximum dm/dt stage time: 360 min. Hygroscopicity of free form Pattern B was evaluated by dynamic vapor sorption (DVS) test at 25° C. […] It absorbed about 0.8% water at 80% RH at 25° C.

[4] = Exposure of Pattern C in ambient condition (variable temperature XRPD); conditions: 23° C., 27% RH
Procedure: Pattern C is an anhydrate. It was obtained in variable temperature XRPD experiment by heating Pattern A to 100° C. under the nitrogen atmosphere. Pattern C is of high crystallinity. According to the DSC thermogram of Pattern A, Pattern C has a melting peak at Tonset of 134.2° C. Pattern C is a metastable form.

CCOc1cc(C(=O)N(C)Cc2cnc(CO)c3cn[nH]c23)ccc1-c1cc(F)cc(F)c1 [Free form Pattern B, 2-ethoxy-3′,5′-difluoro-N-((4-(hydroxymethyl)-1H-pyrazolo[4,3-c]pyridin-7-yl)methyl)-N-methyl-[1,1′-biphenyl]-4-carboxamide]
Bulk stability, chemical and physical [1]: physically and chemically stable
Degradation by HPLC [1]: no obvious degradation
Form change by XRPD [1]: no form change
XRPD of residual solid ([2]; FaSSGF, pH 1.6, 37° C.): hemi-HCl salt Pattern A
Form after the solubility test (XRPD) ([2]; most of media): no form change or partially converted to free form Pattern A
XRPD of residual solid ([2]; pH 1.2 HCl buffer, 37° C.): Mono-HCl salt Pattern A
solubility ([2]; other media (pH 4.5 acetate, pH 6.8 phosphate, water, FaSSIF-v1, HPMC/Pluronic), 37° C., 2 h and 24 h): 2 to 80 µg/mL (≈ 4.42 to 177 µM)
solubility ([2]; pH 1.2 HCl buffer, pH 1.6 FaSSGF and pH 5.0 FeSSIF-v1, 37° C.): 100 to 600 µg/mL (≈ 221 to 1330 µM)
Hygroscopicity [3]: slightly hygroscopic
XRPD after DVS test [3]: still Pattern B
Water absorbed at 80% RH ([3]; 80% RH): about 0.8%

CCOc1cc(C(=O)N(C)Cc2cnc(CO)c3cn[nH]c23)ccc1-c1cc(F)cc(F)c1 [Pattern C, 2-ethoxy-3′,5′-difluoro-N-((4-(hydroxymethyl)-1H-pyrazolo[4,3-c]pyridin-7-yl)methyl)-N-methyl-[1,1′-biphenyl]-4-carboxamide]
Form conversion after exposure in ambient condition [4]: converted to Pattern A
